Patent publication US20170020909A1, “METHODS OF TREATING GLAUCOMA USING AMP-ACTIVATED PROTEIN KINASE (AMPK) ACTIVATORS” (Massachusetts Eye and Ear Infirmary, priority 2014, published 2017)

Experiments:
[1] = system: TSP-1; assay: Immunoblot of TSP-1 in conditioned media of human TM cells; assay type: cell-based; conditions: 24 hours
Protocol: (§1) FIGS. 5A-E. AICAR suppresses ECM proteins in primary human TM cells under basal and TGF-β2 stimulatory conditions. (A) Representative immunoblots of ECM proteins from conditioned media (CM) of human TM cells treated for 24 hours with PBS vehicle or 0.5 mM AICAR and (B) integrated band intensities calculated from those immunoblots. (C) Representative immunoblots of ECM proteins from CM of human TM cells under stimulation with 2.5 ng/mL TGF-β2. Cells were pre-incubated for 1 hour with PBS or 0.5 mM AICAR prior to full 24-hour treatment. (D) Mean integrated band intensities. Data in panels B and D are expressed as mean±SEM (*p<0.05 vs. PBS vehicle by student t-test; n=5-7). (E) Representative 10% acrylamide gels stained with Coomassie Brilliant Blue as a loading control. […]
(§2) At the conclusion of each experiment for matricellular and ECM protein detection, conditioned media (CM) from TM cell cultures was harvested and centrifuged at 5000 rpm for 10 minutes at 4° C. The supernatant was then concentrated (Amicon Ultra-4 Filter Unit, 10 kDa; Millipore, Milford, Mass.), and protein content quantified using the DC Protein Assay kit adhering to manufacturer's protocols (Bio-Rad, Hercules, Calif.). […] Samples were then centrifuged at 14,000 rpm for 15 minutes at 4° C. and protein content quantified. […]

[2] = system: laminin; assay: Immunoblot of laminin in conditioned media of human TM cells; assay type: cell-based; conditions: 24 hours
Protocol: as §1, §2

[3] = 0.5 mM AICAR vs PBS vehicle, basal
[4] = 0.5 mM AICAR, under TGF-β2 stimulation with 2.5 ng/mL

NC(=O)c1ncn([C@@H]2O[C@H](CO)[C@@H](O)[C@H]2O)c1N [AICAR, 5-Aminoimidazole-4-carboxamide riboside]
change in TSP-1 (mean integrated band intensity) [1, 3]: no change | change in TSP-1 levels [1, 4]: no change | decrease in laminin (mean integrated band intensity) [2, 3]: 64% | decrease in laminin level [2, 4]: 33%
